This is an account of results in a melting point compilation (Tetko et al.; mined from patent text by program, amines drawn as free bases though some values may be those of a salt).

As to `Cn1nnnc1NC(=O)c1cccc2cccnc12`, the melting point is 224 to 225 °C.
To `CC1Nc2cc(NC(=O)c3ccc(-c4ccccc4)cc3)ccc2N1C` (stereo not given) belongs 272 to 274 °C; to `O=c1c(-c2ccccc2)ccc2n1CCc1ccsc1-2`, 133 to 134 °C; to `C=Cc1ccc(-n2cc(C)c(=O)[nH]c2=O)cc1`, 185 °C.
To `Clc1cc(Cl)c(OCOCOc2c(Cl)cc(Cl)cc2Cl)c(Cl)c1` belongs 179 to 181 °C; to `CCCCOc1ccc(C(=O)N[C@@H]2CCc3cccc(C4CCN(C)CC4)c3C2)cc1`, 162 to 164 °C.
To `CCS(=O)(=O)Nc1cccc(COc2cc(F)cc(Nc3ccc(I)cc3F)c2C(N)=O)c1` belongs 170 °C; to `C=CCONC(=O)c1nc(-c2ccc(C)cc2)cc(N)c1Cl`, 177 to 179 °C.
Regarding `CCn1nc2c(N)nc3ccccc3c2c1C`, the melting point was in the range of 217 to 218 °C.
For `CC(C=CC=C(C)c1cc2c(s1)C(C)(C)CCC2(C)C)=CC(=O)O`, the melting point was in the range of 226 to 228 °C.
The figure for `O=C1CC(=Cc2c[nH]c3ccccc23)C(=O)O1` is 90 to 91 °C.
To `O=c1c2ccccc2sc2ccc(N3CCOCC3)cc12` belongs 166 to 167 °C; to `Cn1cccc1C(=O)NCCN1CCC(Nc2nc3ccccc3n2Cc2ccc(CO)o2)CC1`, 182 °C.
The figure for `Clc1ccc(OCc2ccc3ccccc3n2)cc1` is 92 to 94 °C; for `O=[N+]([O-])c1ccccc1N1CCc2ccccc21` it is 62 to 64 °C; for `CSC(=C[N+](=O)[O-])NCCSCc1ccccn1` it is 95.5 to 96.5 °C.
Turning to `CC(=O)c1ccc(-c2ccc(F)cc2F)c(Cl)c1`, the melting point lay in the range of 63 to 64 °C.
In turn, `Cc1cc2ncc(Nc3ccc(Cl)c(Cl)c3)nc2cc1C` yielded a melting point of 229 °C.
Take `O=[N+]([O-])c1ccc(-c2nc3cc(OCc4ccccc4)ccc3s2)c(Cl)c1`: the melting point is 156 to 157 °C.
To `Cc1ccsc1C(=O)c1sc(Nc2ccc(S(N)(=O)=O)cc2)nc1N` belongs 284 to 286 °C; to `Nc1nc(O)c2c(n1)NCC(CN(C=O)Cc1ccc(C(=O)N[C@@H](CCC(=O)O)C(=O)O)cc1)C2` (stereo not given in full), 178 °C; to `CNc1cc(SC2CCN(C)CC2)c(Cl)cc1[N+](=O)[O-]`, 102 °C.
The figure for `O=C(CCCOc1cccc(CNC(=O)c2nc3ccccc3c(=O)[nH]2)c1)NO` is 164 to 168 °C; for `Cc1cccc(-c2n[nH]cc2-c2ccc(F)c(-c3cn[nH]c3)c2)n1` it is 110 to 112 °C; for `CCOC(=O)c1cn(C2CC2)c2c(C#N)c(Cl)c(F)cc2c1=O` it is 162 to 165 °C.
To `CC1CCN(C)c2nc3[nH]c(=O)cc(C(F)(F)F)c3cc21` (stereo not given) belongs 225 to 230 °C; to `CC1(C)C(c2ccc(O)cc2)C1(Cl)Cl` (stereo not given), 111 to 112 °C.
`COc1ccc2cc([C@H](C)C(=O)OCC(=O)COC(=O)Cc3ccc(CO[N+](=O)[O-])cc3)ccc2c1` registered a melting point of 92 to 95 °C.
To `CCOC(=O)c1cn(C)c2cnc3cc(F)c(N4CCN(c5cccc(OC)c5)C(C)C4)cc3c2c1=O` (stereo not given) belongs 226 °C; to `O=C(NCCO)/C(=C/c1ccc(OC(F)(F)F)cc1)NC(=O)c1ccc(OCC2CCC2)cc1`, 168 to 170 °C; to `CCCC(=O)c1cnc2c(OCCCN3CCCC3)cccc2c1Nc1ccccc1C`, 101 to 103 °C.
To `CC1C(=CC2C(C(=O)O)C2(C)C)C1(F)F` (stereo not given) belongs 97.7 °C; to `O=C(O)C1CCN(CC2CN(CC3CCN(c4ccncc4)CC3)C(=O)O2)CC1` (stereo not given), 94 to 96 °C.
Regarding `CCOC(=O)C(C(=O)OCC)N1CC(N2C(=O)c3ccccc3C2=O)C1=O` (stereo not given), the melting point fell in the range of 149 to 150 °C.
To `CSc1nc(O)nc(-c2ccncc2)n1` belongs 270 to 272 °C.
`COc1nc2c(Cl)cccc2s1` yielded a melting point of 55 to 57 °C.
To `O=C(O)COc1cc(F)c(-c2ccccc2)cc1C(=S)NCc1cccc([N+](=O)[O-])c1` belongs 177 to 179 °C.
In turn, `OC1CCN(c2nc(-c3ccccc3)nc3ccccc23)C1` (stereo not given) gave a melting point of 180 to 182 °C.
The compound `Cc1nc(-c2ccc3c(=O)n(CC(C)C)c(CNC(=O)OC(C)(C)C)c(-c4ccccc4)c3c2)sc1C(=O)O` yielded a melting point of 184 to 186 °C.
With `CNC(=O)Nc1ccc(Oc2ccc3sncc3c2)cc1`, the melting point was found to be 178 °C.
To `CC(C)(C)Nc1c(NCc2cc(Cl)ccc2Cl)c(=O)c1=O` belongs 236 °C; to `CONS(=O)(=O)c1ccc(C(F)(F)F)cc1`, 96 to 97 °C.
Take `O=C(NCCOCCO[N+](=O)[O-])c1cncs1`: the melting point fell in the range of 63 to 65 °C.
To `O=c1c(-c2ccccc2)c(CSc2ncnc3[nH]cnc23)oc2ccccc12` belongs 208 to 209 °C.
The figure for `Cc1ccc(-c2cccc(/C=C/C(=O)Nc3ccc(CN(C)CC#N)cc3)c2)cc1` is 163 to 165 °C; for `S=C=Nc1ccc2nc(Oc3ccccc3)sc2c1` it is 118 to 119 °C; for `CC(C)c1ccc2c(c1)c(SCc1ccccc1)c(CC(C)(C)C(=O)O)n2Cc1ccc(Cl)cc1` it is 135 to 137 °C.
For `CC1(C)C(=O)N(c2ccccc2)C(=S)N1c1ccc(OCc2ccccc2)cc1`, the melting point fell in the range of 208 to 210 °C.
The figure for `C#CCOc1cc2c(=O)cc(C(=O)OCC)n(CC#C)c2ccc1=O` is 169 °C; for `CC(C)NC1CCCCC1O` (stereo not given) it is 54 to 55 °C.
The figure for `O=C(Nc1cccc(C(F)(F)F)c1)c1cccc2cc(Oc3cc(CCl)ncn3)ccc12` is 178 to 181 °C; for `OC(CCCN1CC=C(c2ccc(Cl)cc2)CC1)c1ccc(Cc2ccc(Cl)cc2)cc1` (stereo not given) it is 104 to 105 °C; for `O=C(c1cccnc1)N1CCC(c2ccccc2[N+](=O)[O-])=N1` it is 123 to 125 °C.
To `O=C(CCl)N[C@@H]1CCCC[C@H]1NC(=O)CCl` (relative stereo) belongs 202 to 203 °C; to `CCCOc1ccc2c(c1)C(c1ccc(OC)cc1-c1cccc(C(=O)O)c1)C(C(=O)O)C2c1ccc2c(c1)OCO2` (stereo not given), 257 to 268 °C.
Turning to `CCOC(=O)Nc1cc(N(C(=O)OCC)S(=O)(=O)CC)c(Br)cc1F`, the melting point was 142 to 143 °C.
The figure for `COc1ccc(S(=O)(=O)C(CCCc2ccccc2)(CCCc2ccccc2)C(=O)O)cc1` is 118 to 120 °C; for `COc1ccc(/C=C/c2c(Cl)cncc2Cl)c2cc(-c3ccncc3)oc12` it is 204 to 206 °C; for `CCc1ccc(-c2ccc(-c3ccc(CC)s3)c(F)c2)cc1` it is 67 °C.
The figure for `O=C1CNC(=O)C(CCCCNC(=O)OCc2ccccc2)N1` (stereo not given) is 210 °C.
The figure for `CCc1c(C(=O)NNC(=O)C(O)c2cc(F)cc(F)c2)ccc(OC)c1C` (stereo not given) is 197 °C; for `Cc1cc(F)c(Cl)cc1[N+](=O)[O-]` it is 57 to 58 °C; for `CSc1cccc(Cc2sc(NC(C)=O)nc2C=O)c1` it is 148 to 150 °C.
On to `C=CCC(NC(=O)C(CCCCN)NC(=O)Cc1cn(CC=C)c2ccccc12)C(=O)OC` (stereo not given), for which the melting point lay within 103 to 106 °C.
To `O=[N+]([O-])c1ccc2c(c1)N(C1CCN(CCc3ccc(F)cc3)CC1)CC2` belongs 104 to 106 °C.
The figure for `C=CCNc1c(C#N)cnc2cn[nH]c12` is 249 to 252 °C; for `CCCCCn1c(C)cc(=O)c(C(=O)Nc2ccccc2)c1-c1ccccc1` it is 164 to 166 °C; for `COc1cc2c(cc1OC)C(CNC=O)c1ccccc1CC2` (stereo not given) it is 118 to 119 °C.
As for `CC1(C)Oc2ccncc2[C@@H](Oc2ccccn2)[C@@H]1O` (relative stereo), the melting point was 207 °C.
The figure for `COc1ccccc1-c1ccccc1C1=NC(C)(C)CO1` is 129 to 131 °C; for `O=C(c1ccco1)N1CCc2cc(S(=O)(=O)n3cc(-c4ccccc4)[nH]c3=O)ccc21` it is 256 to 257 °C; for `CCN(CCNS(C)(=O)=O)c1ccc(N)c(C)c1` it is 128 to 130 °C.
To `CCC(=O)SCC(CC(=O)c1ccc(Br)cc1)C(=O)O` (stereo not given) belongs 122 to 123 °C; to `COc1ccc([C@]2(C)CNC(=O)O2)cc1OC1CCC1`, 132 °C.
The figure for `COc1ccc(-c2ccncc2OC2SCC(O)C(O)C2O)cc1` (stereo not given) is 228 °C.
`CN(C)CCC1(CO)c2ccccc2N(C)c2cc(Cl)ccc21` (stereo not given) showed a melting point of 120 °C.
`CN1CCC(OC2c3ccccc3CCn3c2nc(-c2ccc(C(=O)OC(C)(C)C)cc2)c3C#N)CC1` (stereo not given) showed a melting point of 95 °C.
The figure for `CCC(=O)c1cnc2c(O)cccc2c1Nc1ccccc1C` is 125 to 128 °C; for `CCOC(=O)CCn1c(=O)[nH]c2ccccc2c1=O` it is 192 to 194 °C; for `O=C1C2CC(O)CCN2C(=O)N1c1ncc(Cl)cc1F` (stereo not given) it is 183 to 185 °C.
Regarding `O=C(CC(=O)c1cc(O)ccc1O)c1ccc(OCc2ccccc2)c(OCc2ccccc2)c1`, the melting point is 196 to 197 °C.
To `ClCc1cnoc1-c1cc(Cl)c(Cl)s1` belongs 60 to 61 °C.
To `CC(C)(C)[Si](C)(C)Oc1c(I)cc(Cl)c2cccnc12` belongs 65 to 67 °C; to `C=C(C)c1cccc2c(C(=O)O)cccc12`, 138 to 140 °C.
The figure for `COc1ccc2c(c1Cl)CCCC2=O` is 130 to 131 °C; for `COC(CCC(C)C1CCC2C3C(OC(C)=O)CC4CC(OC(C)=O)CCC4(C)C3CC(=O)C12C)=NNS(=O)(=O)c1ccc(C)cc1` (stereo not given) it is 146 to 147 °C.
For `C=C(C)C(=O)NCc1cc(C)c(O)c(C)c1`, the melting point fell in the range of 136 to 138 °C.
Regarding `O=C(NCCCn1cc(Cn2ccnc2)c2ccccc21)Nc1ccccc1`, the melting point fell in the range of 177 to 178 °C.
To `CCC(Oc1cccc(OC)c1)C(=O)NCc1ccccc1` (stereo not given) belongs 63 to 64 °C; to `CC(C)(C)c1cc(CCc2ccccc2NC(=O)N2CCN(C(=O)c3ccccc3)CC2)cc(C(C)(C)C)c1O`, 207 to 209 °C.

As a reminder, the melting point is the temperature, or range, at which the solid turns liquid.
